7 molecules from US4798828A, “Heterocyclic-methylene-penems” (Beecham Group p.l.c., priority 1984, dated 1989) can be followed below.

In brackets after ≈: the same amount, converted by molar mass.

Common to all, as to assay: Antibacterial activity of compounds alone (MIC)
What all share (type): cell-based
Common to all, as to settings: compound alone, amoxycillin: typical MIC's from a number of tests, read-out: MIC (minimum inhibitory concentration)

One assay concerns P mirabilis C889. The source says: (§1) The following Table 1 summaries the antibacterial activity of selected compounds according to the invention (which are identified by compound numbers as given in the examples) against selected micro-organisms and, for comparison purposes, also gives the same data for amoxycillin. The data is given in the form of MIC values (minimum inhibitory concentration)in μg/ml.

Another assay has as its system C freundii Mantio.
Text: as §1

The subject of another assay is E coli JT410.
Text: as §1

For a further assay, the system named is E aerogenes N1.
Text: as §1

In the case of `Cn1cc(/C=C2/C(=O)N3C(C(=O)O)=CSC23)nn1` (racemic) [88(a), (5RS) Sodium (Z)-6-(1-methyl-1,2,3-triazol-4-yl-methylene)penem-3-carboxylate], the MIC was 128 µg/mL in the assay with P mirabilis C889, 128 µg/mL in the assay with C freundii Mantio, 64 µg/mL in the assay on E coli JT410 and 128 µg/mL in the assay with E aerogenes N1.
With `O=C(O)C1=CSC2/C(=C\c3ccns3)C(=O)N12` (racemic) [Compound 11, (5RS) Sodium (Z)-6-(5-Isothiazolylmethylene)penem-3-carboxylate], the MIC in the assay on P mirabilis C889, with C freundii Mantio, in the assay with E coli JT410 and in the assay with E aerogenes N1 was over 100 µg/mL in each case.
For the molecule `Cc1nc(/C=C2/C(=O)N3C(C(=O)O)=CSC23)co1` (racemic) [Compound 78, (5RS) Sodium (Z)-6-[(2-methyloxazol-4-yl)methylene]penem-3-carboxylate], the MIC was 256 µg/mL with P mirabilis C889, over 512 µg/mL with C freundii Mantio, over 512 µg/mL in the assay with E coli JT410 and over 512 µg/mL with E aerogenes N1.
As to `Cn1cc(/C=C2/C(=O)N3C(C(=O)O)=CS[C@H]23)nn1` [Compound 158, (5R) Sodium (Z)-6-(1-methyl-1,2,3-triazol-4-ylmethylene) penem-3-carboxylate], the MIC with P mirabilis C889 is 64 µg/mL; in the assay with C freundii Mantio it was 64 µg/mL; in the assay on E coli JT410, 32 µg/mL; with E aerogenes N1, 256 µg/mL.
As to `CC1(C)S[C@@H]2[C@H](NC(=O)[C@H](N)c3ccc(O)cc3)C(=O)N2[C@H]1C(=O)O` [Amoxycillin, reference compound], the MIC with P mirabilis C889 was over 512 µg/mL; in the assay on C freundii Mantio, over 512 µg/mL; in the assay on E coli JT410, 256 µg/mL (≈ 701 µM); with E aerogenes N1 it was 512 µg/mL (≈ 1400 µM).
Consider `O=C(O)C1=CSC2/C(=C\c3ccon3)C(=O)N12` (racemic) [Compound 43, (5RS) Sodium (Z)-6-(Isoxazol-3-ylmethylene)penem-3-carboxylate], for which the MIC in the assay with P mirabilis C889 is 256 µg/mL; with C freundii Mantio, 256 µg/mL; with E coli JT410, over 512 µg/mL; in the assay with E aerogenes N1, over 512 µg/mL.
As for `Cn1ccc(/C=C2/C(=O)N3C(C(=O)O)=CSC23)n1` (racemic) [Compound 169, (5RS) Sodium (Z)-6-(1-methylpyrazol-3-ylmethylene)penem-3-carboxylate], the MIC stood at 256 µg/mL in the assay on P mirabilis C889, 256 µg/mL in the assay on C freundii Mantio, 512 µg/mL in the assay on E coli JT410 and 512 µg/mL in the assay on E aerogenes N1.
